In patent publication US3956491A, “Medicine containing the main sapogenin of helleborus” (priority 1974, dated 1976):

Legend:
[1] = ulcer healing / antiulcer activity, general statement (test not specified); type: in vivo
[2] = central nervous system influencing activity
[3] = tested on: indometacin ulcer of rats; test: indometacin ulcer of rats (method of John and Adrian modified by Wilhelmi); type: in vivo, Albino rats of the strain SIV 50; settings: for ULCER PROTECTING EFFECT: indometacin 20 mg/kg, 24 h
Procedure: These tests were carried out according to the method of John and Adrian modified by Wilhelmi on the indometacin ulcer of rats (see Arzeimittelforschung Vol. 19 (1969) pages 45 et seq.).
The determination is carried out in the following manner.
Albino rats of the strain SIV 50 (S. Ivanovas, Kisslegg/allgau) having an initial weight of 250 to 300 grams were held in controlled temperature rooms at 20° to 22°C. in wire cages (Ebeco, Type 3 double width) on a standard diet (Altromin). After 48 hour feeding intervals the animals received 20 mg/kg rat of indometacin in 1.5% tragacanth (1 ml tragacanth solution per 100 grams of rat) applied introgastrally.
One hour after giving the indometacin there was dispensed orally to the animals the test substance. The rats remain otherwise fasting (water ad libitum)
Twenty four hours after giving the indometacin the animals were killed with […]. The stomach was resected, opened along the great curvature and washed under flowing water.
The ulcerative changes appear as dark, point or stria shaped spots on the mucosa. The evaluation was done according to the method of Munchow Arneimittedforschung Vol. 4 (1954) pages 341-344.

[4] = tested on: histamine ulcers of guinea pigs; test: histamine type of ulcer of guinea pigs (method of Eagleton and Watt); type: in vivo; settings: oral, histamine diphosphate 5 mg/kg
Procedure: The testing of the histamine type of ulcer of guinea pigs is carried out for example by the method of Eagleton and Watt (Peptic Ulcer, Pfeiffer, Munksgaard, Copenhagen, printed in Denmark by Aarhuus, Stiftsbogtrykkerie A/S Arhus ISBN 8716003225 pages 34-44). The entire disclosure of the Eagleton and Watt article is hereby incorporated by reference and relied upon. There were employed predominantly male guinea pigs weighing 300 to 400 grams and the test substance was applied orally after 24 hour feeding intervals and 12 hours deprivation of drinking water. One hour after giving the substance the guinea pigs were given the injection of histamine diphosphate (histamine acid phosphate) at a dosage of 5 mg/kg (the histamine diphosphate was employed in aqueous solution at a concentration of 1 mg histamine disphosphate/ml). The histamine diphosphate was injected introperitoneally. Three hours after the injection of histamine the animals were killed with CO2. The stomachs were resected and cut open along the small curvature and turned upside down over the examination finger. The ulcers were evaluated according to Munchow (Arzneimittelforschung Vol. 4 (1954 pages 341-344).
The calculated control index must in the order of magnitude between 5 and 15.

[5] = acute toxicity in the mouse (method of Miller and Tainter); settings: in vivo, oral application
Procedure: The acute toxicity of the compound of the invention in the mouse (expressed by LD50 mg/kg; method of Miller and Tainter; Proc. Soc. Exper. Biol. a. Med. Vol 57 (1944) pages 261 et seq.) on oral application, for example is above 6000 mg/kg.

## C=C1CC[C@@]2(OC1)O[C@H]1C[C@H]3[C@@H]4CC=C5C[C@@H](O)C[C@@H](O)[C@]5(C)[C@H]4[C@H](O)C[C@]3(C)[C@H]1[C@@H]2C [Helleborus main sapogenin, spiro-5,25(27)-diene-1β,3β,11α-triol]
Muscle relaxing activity
  muscle relaxing activity: muscle relaxing
[1]; comparison with the known medicine Biogastrone
  antiulcer activity compared with Biogastrone: comparable to the activity of the known medicine Biogastrone
[1]; in vivo
  ulcer healing activity: has an ulcer healing activity
[2]
  central nervous system influencing activity: central nervous system influencing activity has been established
[3]; daily dosage 50 mg/kg, oral
  ULCER PROTECTING EFFECT: 58%
[3]; daily dosage 100 mg/kg, oral
  ULCER PROTECTING EFFECT: 78%
[3]; daily dosage 200 mg/kg, oral
  ULCER PROTECTING EFFECT: 80%
[3]; indometacin ulcers of rats, oral
  anti-ulcer activity: good anti-ulcer activity
[3]; po, orally, above mentioned animal experiments (indometacin ulcers of rats, histamine ulcers of guinea pigs), read-out: lowest effective dosage
  minimal effective dose: 50 mg/kg
[4]
  anti-ulcer activity: good anti-ulcer activity
[5]
  LD50: > 6000 mg/kg
